# Measured values published in publication PMC11133627, “CATH-2-derived antimicrobial peptide inhibits multidrug-resistant Escherichia coli infection in chickens” (Frontiers in Cellular and Infection Microbiology, 2024).
# Ends that are not written are not given here.
# Tests used:
# [1] = test system: E. coli clinical isolate E1; assay: microbe, parasite or virus in culture
# Method: (§1) The minimum inhibitory concentrations (MICs) of the AMPs were determined using the microbroth dilution technique ([van Harten et al., 2021]). One hundred microliters of bacterial suspension at a concentration of 1×10^6 CFU/mL was pipetted into a 96-well plate. Then, 100 μL of AMP or gentamicin at various concentrations was added, while the bacterial suspension without AMPs and blank medium were used as controls.
# [2] = test system: E. coli clinical isolate E14; assay: microbe, parasite or virus in culture; assay type: cell-based, Escherichia coli
# Method: as §1
# [3] = test system: E. coli clinical isolate E9; assay: microbe, parasite or virus in culture; assay type: cell-based, Escherichia coli
# Method: as §1
# E. coli (ATCC 8739) [4] = assay: microbe, parasite or virus in culture; assay type: cell-based, Escherichia coli
# Method: as §1
# [5] = test system: E. coli clinical isolate E16; assay: microbe, parasite or virus in culture; assay type: cell-based, Escherichia coli
# Method: as §1
# [6] = test system: E. coli clinical isolate E18; assay: microbe, parasite or virus in culture; assay type: cell-based, Escherichia coli
# Method: as §1
# [7] = test system: E. coli clinical isolate E12; assay: microbe, parasite or virus in culture; assay type: cell-based, Escherichia coli
# Method: as §1
# [8] = test system: E. coli strains (ATCC 8739 and MDR clinical isolates); assay type: cell-based, Escherichia coli; conditions: ATCC 8739, 18 h
# Method: as §1
# E. coli (ATCC 8739) [9] = assay type: cell-based, Escherichia coli; conditions: ATCC 8739, 1 h
# Method: The MICs of the AMPs against E. coli (ATCC 8739) at different temperatures and physiological salt concentrations were evaluated. The thermal stability of the AMPs was assessed by incubating them at a concentration of 500 μg/mL for 1h at 0, 37, and 100°C, using untreated AMPs as a control. The salt ion stability of the AMPs was determined by incubating them at a concentration of 500 μg/mL in solutions of NaCl (150 mM), KCl (4.5 mM), MgCl2 (1 mM), and CaCl2 (2.5 mM) for 1h, using untreated samples as controls. The changes in the MICs of the AMPs were assessed following these experimental procedures.
# [10] = test system: E. coli clinical isolate E14; assay: Drug-sensitivity test (paper disc, inhibition zone); assay type: cell-based, Escherichia coli; parameters: key to Drug sensitivity of E. coli E14: R: resistant strains; I: intermediate strains; S: sensitive strains; conditions: 6 mm antibiotic paper on LB agar, 1×10^6 CFU/mL, 24h 37°C, inhibition zone diameter
# Method: (§2) E. coli (ATCC 8739) and clinical isolates of E. coli (E1, E9, E12, E14, E16, and E18) were stored at the Animal Biochemical Laboratory of Shanxi Agricultural University and grown in Luria-Bertani (LB) broth as previously reported ([Zhao et al., 2021]). Circular 6 mm paper pieces were prepared with filter paper and autoclaved for sterilization. […] Then, 0.5 mL of antibiotic solution was added to 100 sterilized papers. Subsequently, the paper pieces were fully infiltrated and dried in a vacuum drying oven to produce antibiotic susceptibility papers. The E. coli strain was retrieved from the -20°C freezer and activated by incubating it on LB agar media at 37°C for 24h. Individual colonies were selected and transferred to LB liquid media. Thereafter, the E. coli suspension was obtained by shaking at 37°C and 160 r/min for 18h. The obtained suspension was centrifuged at 5000 r/min for 5min, after which the supernatant was discarded, and the bacteria were resuspended in fresh medium to a concentration of 1×10^6 CFU/mL. Two hundred microliters of the bacterial suspension mentioned above was spread evenly onto LB agar medium. Then, the antibiotic susceptibility papers were placed on the medium surface using sterile tweezers. After 24h of incubation at 37°C, the diameter of the inhibition zone was measured to determine the susceptibility of E. coli to antibiotics.
# [11] = test system: E. coli clinical isolate E12; assay: as above; assay type: cell-based, Escherichia coli; parameters: key to Drug sensitivity of E. coli E12: R: resistant strains; I: intermediate strains; S: sensitive strains; conditions: 6 mm antibiotic paper on LB agar, 1×10^6 CFU/mL, 24h 37°C, inhibition zone diameter
# Method: as §2
# [12] = test system: E. coli clinical isolate E1; assay type: cell-based; parameters: key: R: resistant strains; I: intermediate strains; S: sensitive strains; conditions: 6 mm antibiotic paper on LB agar, 1×10^6 CFU/mL, 24h 37°C, inhibition zone diameter
# Method: as §2
# [13] = test system: E. coli clinical isolate E16; assay: Drug-sensitivity test (paper disc, inhibition zone); assay type: cell-based, Escherichia coli; parameters: key to Drug sensitivity of E. coli E16: R: resistant strains; I: intermediate strains; S: sensitive strains; conditions: 6 mm antibiotic paper on LB agar, 1×10^6 CFU/mL, 24h 37°C, inhibition zone diameter
# Method: as §2
# [14] = test system: 6 E. coli strains (E1, E9, E12, E14, E16, E18); assay type: cell-based, Escherichia coli; conditions: paper disc test
# Method: as §2
# [15] = test system: E. coli clinical isolate E9; assay: Drug-sensitivity test (paper disc, inhibition zone); assay type: cell-based, Escherichia coli; parameters: key: R: resistant strains; I: intermediate strains; S: sensitive strains; conditions: 6 mm antibiotic paper on LB agar, 1×10^6 CFU/mL, 24h 37°C, inhibition zone diameter
# Method: as §2
# E. coli (ATCC 8739) [16] = assay: as above; assay type: cell-based, Escherichia coli; parameters: key: R: resistant strains; I: intermediate strains; S: sensitive strains; conditions: 6 mm antibiotic paper on LB agar, 1×10^6 CFU/mL, 24h 37°C, inhibition zone diameter
# Method: as §2
# [17] = test system: E. coli clinical isolate E18; assay: as above; assay type: cell-based, Escherichia coli; parameters: key: R: resistant strains; I: intermediate strains; S: sensitive strains; conditions: 6 mm antibiotic paper on LB agar, 1×10^6 CFU/mL, 24h 37°C, inhibition zone diameter
# Method: as §2
molecule,measurement,setting,value
RFGRFLRKIRRMRLK [C2-2],MBC against E. coli E1,"[1]; 50 μL from fully inhibited wells plated on LB agar, colonies counted after 24h 37°C",8 µg/mL
same,MIC against E. coli E1,"[1]; microbroth dilution, 1×10^6 CFU/mL, 37°C 18h, turbidity",4 µg/mL
same,MIC against E. coli E14,"[2]; clinical isolate E14, 18 h",8 µg/mL
same,MBC against E. coli E14,"[2]; clinical isolate E14, 24 h",8 µg/mL
same,MIC against E. coli E9,"[3]; clinical isolate E9, 18 h",2 µg/mL
same,MBC against E. coli E9,"[3]; clinical isolate E9, 24 h",2 µg/mL
same,MIC against E. coli ATCC 8739,"E. coli (ATCC 8739) [4]; ATCC 8739, 18 h",8 µg/mL
same,MBC against E. coli ATCC 8739,"E. coli (ATCC 8739) [4]; ATCC 8739, 24 h",8 µg/mL
same,MIC against E. coli E16,"[5]; clinical isolate E16, 18 h",8 µg/mL
same,MBC against E. coli E16,"[5]; clinical isolate E16, 24 h",8 µg/mL
same,MIC against E. coli E18,"[6]; clinical isolate E18, 18 h",4 µg/mL
same,MBC against E. coli E18,"[6]; clinical isolate E18, 24 h",4 µg/mL
same,MIC against E. coli E12,"[7]; clinical isolate E12, 18 h",2 µg/mL
same,MBC against E. coli E12,"[7]; clinical isolate E12, 24 h",2 µg/mL
same,MBC range over E. coli strains,[8],2 to 8 µg/mL
same,MIC range over E. coli strains,[8],2 to 8 µg/mL
same,"MIC against E. coli (ATCC 8739), Salt Stability CaCl2 (2.5 mM)",E. coli (ATCC 8739) [9],4 µg/mL
same,"MIC against E. coli (ATCC 8739), Salt Stability KCl (4.5 mM)",E. coli (ATCC 8739) [9],0.5 µg/mL
same,"MIC against E. coli (ATCC 8739), Salt Stability MgCl2 (1 mM)",E. coli (ATCC 8739) [9],0.5 µg/mL
same,"MIC against E. coli (ATCC 8739), Salt Stability NaCl (150 mM)",E. coli (ATCC 8739) [9],0.5 µg/mL
same,"MIC against E. coli (ATCC 8739), Thermal Stability 0°C",E. coli (ATCC 8739) [9],8 µg/mL
same,"MIC against E. coli (ATCC 8739), Thermal Stability 37°C",E. coli (ATCC 8739) [9],8 µg/mL
same,"MIC against E. coli (ATCC 8739), Thermal Stability 100°C",E. coli (ATCC 8739) [9],8 µg/mL
CS(=O)(=O)c1ccc([C@@H](O)[C@@H](CF)NC(=O)C(Cl)Cl)cc1 [florfenicol],Drug sensitivity of E. coli E14,[10],R
same,Drug sensitivity of E. coli E12,[11],R
same,Drug sensitivity of E. coli E1,[12],R
same,Drug sensitivity of E. coli E16,[13],R
same,Resistance of the 6 clinical E. coli strains (in words),[14],resistant
same,Drug sensitivity of E. coli E9,[15],R
same,Drug sensitivity of E. coli ATCC 8739,E. coli (ATCC 8739) [16],S
same,Drug sensitivity of E. coli E18,[17],R
